In patent publication US6897219B2, “Heteroaryl diazacycloalkanes, their preparation and use” (priority 1997, dated 2005):
Structures can show the parent of a compound that is named as a salt.

Tested on: not given
Experiment: not given
Settings: not given

SMILES	melting point
c1ccc2ncc(N3CCCNCC3)cc2c1 (as salt: fumaric acid salt) [Compound 2F, 1-(3-Quinolinyl)-homopiperazine]	181 to 182 °C
c1ccc(-c2cncc(N3CCCNCC3)c2)cc1 (as salt: fumaric acid salt) [Compound 2H, 1-(5-Phenyl-3-pyridyl)-homopiperazine]	185 to 186 °C
c1ccc2nc(N3CCCNCC3)cnc2c1 (as salt: fumaric acid salt) [Compound 2L, 1-(2-Quinoxalinyl)-homopiperazine]	177 to 180 °C
COc1cncc(N2CCCN(C)C2)c1 (as salt: fumaric acid salt) [Compound 2M, 1-(5-Methoxy-3-pyridyl)-3-methyl-1,3-diazacyclohexane]	149 to 151 °C
COc1cncc(N2CCNCC2)c1 (as salt: fumaric acid salt) [Compound 3B, 1-(5-Methoxy-3-pyridyl)-piperazine]	168.5 to 170.5 °C
COc1cncc(N2CCCN(C)CC2)c1 (as salt: fumaric acid salt) [Compound 3E, 1-(5-Methoxy-3-pyridyl)-4-methyl-homopiperazine]	145 to 147 °C
CCOc1cncc(N2CCCNCC2)c1 (as salt: fumaric acid salt) [Compound 3H, 1-(5-Ethoxy-3-pyridyl)-homopiperazine]	157.5 to 159 °C
Clc1cncc(N2CCCNCC2)n1 (as salt: fumaric acid salt) [Compound 3K, 1-(6-Chloro-2-pyrazinyl)-homopiperazine]	180 to 181 °C
Clc1cncc(N2CCNCC2)c1 (as salt: fumaric acid salt) [Compound 4B, 1-(5-Chloro-3-pyridyl)-piperazine]	195 to 196 °C
CCOc1cncc(N2CCCN(C)CC2)c1 (as salt: fumaric acid salt) [Compound 4E, 1-(5-Ethoxy-3-pyridyl)-4-methyl-homopiperazine]	150 to 152 °C
CN1CCN(c2cncc(Cl)c2)CC1 (as salt: fumaric acid salt) [Compound 5A, 1-(5-Chloro-3-pyridyl)-4-Methyl-piperazine]	162 to 163 °C
CN1CCCN(c2cncc(-c3ccccc3)c2)CC1 (as salt: fumaric acid salt) [Compound 5E, 4-Methyl-1-(5-phenyl-3-pyridyl)-homopiperazine]	161 to 162 °C
COc1cc(N2CCCNCC2)cnc1Cl (as salt: fumaric acid salt) [Compound 5F, 1-(6-Chloro-5-methoxy-3-pyridyl)-homopiperazine]	196 to 197 °C
COCCOc1cncc(N2CCCNCC2)c1 (as salt: fumaric acid salt) [Compound 5H, 1-(5-Methoxyethoxy-3-pyridyl)-homopiperazine]	126 to 127 °C
Cc1ccc(N2CCCNCC2)nn1 (as salt: fumaric acid salt) [Compound 5K, 1-(6-Methyl-3-pyridazinyl)-homopiperazine]	102 to 105 °C
CN1CCN(c2cncc(-c3ccccc3)c2)CC1 (as salt: fumaric acid salt) [Compound 6A, 4-Methyl-1-(5-phenyl-3-pyridyl)-piperazine]	179 to 180 °C
COc1cncc(N2CCCNCCC2)c1 (as salt: fumaric acid salt) [Compound 6B, 1-(5-Methoxy-3-pyridyl)-1,5-diazacyclooctane]	158 to 160 °C
CCCCOc1cncc(N2CCCN(C)CC2)c1 (as salt: fumaric acid salt) [Compound 6E, 1-(5-Butoxy-3-pyridyl)-4-methyl-homopiperazine]	127 to 129 °C
CC(C)COc1cncc(N2CCCNCC2)c1 (as salt: fumaric acid salt) [Compound 6H, 1-[5-(2-Methyl-propoxy)-3-pyridyl]-homopiperazine]	121.9 to 123.3 °C
CCOc1cncc(N2CCN(C)CC2)c1 (as salt: fumaric acid salt) [Compound 7A, 1-(5-Ethoxy-3-pyridyl)-4-methyl-piperazine]	162.2 to 163.7 °C

SMILES	melting point
Clc1ccc(N2CCCNCCC2)nn1 (as salt: fumaric acid salt) [Compound 7B, 1-(6-Chloro-3-pyridazinyl)-1,5-diazacyclooctane]	176 to 178 °C
Clc1ccc(N2CCCCNCC2)nn1 (as salt: fumaric acid salt) [Compound 8B, 1-(6-Chloro-3-pyridazinyl)-1,4-diazacyclooctane]	177 to 179 °C
CC(C)COc1cncc(N2CCCN(C)CC2)c1 (as salt: fumaric acid salt) [Compound 8E, 4-Methyl-1-[5-(2-methyl-propyloxy)-3-pyridyl]-homopiperazine]	145.7 to 146.9 °C
Brc1ccc(N2CCCNCC2)cn1 (as salt: fumaric acid salt) [Compound 8K, 1-(6-Bromo-3-pyridyl)-homopiperazine]	164 to 166 °C
CCOc1cncc(N2CCN(CC)CC2)c1 (as salt: fumaric acid salt) [Compound 9D, 1-(5-Ethoxy-3-pyridyl)-4-ethyl-piperazine]	144.8 to 145.9 °C
CN1CCCN(c2cncc(OCC3CC3)c2)CC1 (as salt: fumaric acid salt) [Compound 9E, 1-(5-Cyclopropylmethoxy-3-pyridyl)-4-methyl-homopiperazine]	160.4 to 161.9 °C
c1ncc(N2CCCNCC2)cc1OCC1CC1 (as salt: fumaric acid salt) [Compound 9H, 1-(5-Cyclopropylmethoxy-3-pyridyl)-homopiperazine]	154 to 156 °C
CCCOc1cncc(N2CCCN(C)CC2)c1 (as salt: fumaric acid salt) [Compound 10E, 4-Methyl-1-(5-propyloxy-3-pyridyl)-homopiperazine]	148.8 to 153.5 °C
CCCOc1cncc(N2CCCNCC2)c1 (as salt: fumaric acid salt) [Compound 10H, 1-(5-Propyloxy-3-pyridyl)-homopiperazine]	156.2 to 157.8 °C
COc1cncc(N2CCCNC(C)CC2)c1 (centres unmarked) (as salt: fumaric acid salt) [Compound 11A]	137 to 139 °C
CCCCCCOc1cncc(N2CCCN(C)CC2)c1 (as salt: fumaric acid salt) [Compound 11E, 1-(5-Hexyloxy-3-pyridyl)-4-methyl-homopiperazine]	128.7 to 130.8 °C
CC(C)CCOc1cncc(N2CCCN(C)CC2)c1 (as salt: fumaric acid salt) [Compound 12E, 4-Methyl-1-[5-(3-methyl-butoxy)-3-pyridyl]-homopiperazine]	130.4 to 131.9 °C
CN1CCCN(c2cncc(OCC3CCCCC3)c2)CC1 (as salt: fumaric acid salt) [Compound 14E, 1-(5-Cyclohexylmethoxy-3-pyridyl)-4-methyl-homopiperazine]	160.4 to 162 °C
CCCCCOc1cncc(N2CCCN(C)CC2)c1 (as salt: fumaric acid salt) [Compound 15E, 4-Methyl-1-(5-pentyloxy-3-pyridyl)-homopiperazine]	129 to 130.8 °C
CCCCCCCOc1cncc(N2CCCN(C)CC2)c1 (as salt: fumaric acid salt) [Compound 16E, 1-(5-Heptyloxy-3-pyridyl)-4-methyl-homopiperazine]	120.2 to 121.8 °C
C/C=C/Oc1cncc(N2CCCN(C)CC2)c1 (as salt: fumaric acid salt) [Compound 17E, trans-4-Methyl-1-(5-propyl-1-en-oxy-3-pyridyl)-homopiperazine]	126 to 128 °C
CN1CCCN(c2cncc(SCc3ccccc3)c2)CC1 (as salt: fumaric acid salt) [Compound 18E, 4-Methyl-1-(5-thiobenzyl-3-pyridyl)-homopiperazine]	131 to 133 °C
CN1CCCN(c2cncc(-c3cccnc3)c2)CC1 (as salt: fumaric acid salt) [Compound 19E, 4-Methyl-1-[5-(3-pyridyl)-3-pyridyl]-homopiperazine]	165.5 to 167.5 °C
CN1CCCN(c2cncc(OC3CCCC3)c2)CC1 (as salt: fumaric acid salt) [Compound 25E, 1-(5-Cyclopentyloxy-3-pyridyl)-4-methyl-homopiperazine]	123 to 125 °C
Oc1cncc(N2CCCNCC2)c1 (as salt: hydrochloric acid salt)	290 to 300 °C

Biological target: T1, neuronal nicotinic receptors (α4β2 subtype high affinity site) (Rattus norvegicus, UniProt P09483+P12390)
T1 construct: The forebrain (÷cerebellum) from a male Wistar rat (150-250 g) is homogenized; from tissue; host or cells: rat forebrain (without cerebellum) membrane homogenate
T1 sequence (P09483 31-630): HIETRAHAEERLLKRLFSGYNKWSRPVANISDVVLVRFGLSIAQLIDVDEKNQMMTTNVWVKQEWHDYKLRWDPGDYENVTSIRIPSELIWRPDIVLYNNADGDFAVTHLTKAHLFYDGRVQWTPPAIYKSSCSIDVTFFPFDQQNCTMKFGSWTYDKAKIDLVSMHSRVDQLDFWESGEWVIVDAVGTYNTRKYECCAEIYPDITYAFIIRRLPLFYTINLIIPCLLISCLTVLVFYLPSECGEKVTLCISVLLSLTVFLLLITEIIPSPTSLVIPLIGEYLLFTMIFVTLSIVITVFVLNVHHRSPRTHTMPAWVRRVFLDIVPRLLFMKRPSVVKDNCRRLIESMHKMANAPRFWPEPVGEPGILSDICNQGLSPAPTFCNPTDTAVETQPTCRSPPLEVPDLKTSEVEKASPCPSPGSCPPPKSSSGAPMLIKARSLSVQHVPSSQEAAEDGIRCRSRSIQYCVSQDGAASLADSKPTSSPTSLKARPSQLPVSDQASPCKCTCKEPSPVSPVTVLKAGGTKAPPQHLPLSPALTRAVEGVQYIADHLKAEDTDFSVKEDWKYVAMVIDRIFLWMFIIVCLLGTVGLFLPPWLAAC
T1 sequence (P12390 25-500): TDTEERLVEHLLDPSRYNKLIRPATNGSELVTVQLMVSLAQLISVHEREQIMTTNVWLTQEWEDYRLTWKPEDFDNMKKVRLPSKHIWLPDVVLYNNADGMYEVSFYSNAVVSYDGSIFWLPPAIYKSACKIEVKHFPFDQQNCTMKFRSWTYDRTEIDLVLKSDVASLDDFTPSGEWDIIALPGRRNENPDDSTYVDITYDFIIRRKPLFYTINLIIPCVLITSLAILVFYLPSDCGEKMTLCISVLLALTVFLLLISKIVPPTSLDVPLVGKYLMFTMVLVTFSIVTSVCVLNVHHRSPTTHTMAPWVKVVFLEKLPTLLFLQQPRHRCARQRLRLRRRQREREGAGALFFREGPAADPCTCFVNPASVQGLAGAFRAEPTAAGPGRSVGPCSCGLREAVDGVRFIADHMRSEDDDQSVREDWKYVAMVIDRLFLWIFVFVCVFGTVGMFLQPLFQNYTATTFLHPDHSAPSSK
Experiment: In vitro inhibition of 3H-epibatidin binding
Settings: rat forebrain homogenate, 0.3 nM 3H-epibatidin, 60 min at room temperature; read-out: 3H-epibatidin IC50
Protocol: The high affinity binding site for ^3H-epibatidin is most certainly binding to the α4β2 subtype of nicotinic receptors. The identity of the low affinity site is still unknown; does it represent a second nicotinic receptor or a second site in the same receptor.
Tissue preparation: Preparations are performed at 0-4° C. unless otherwise indicated. The forebrain (÷cerebellum) from a male Wistar rat (150-250 g) is homogenized for 10-20 sec in 20 ml Tris, HCl (50 mM, pH 7.4) using an Ultra-Turrax homogenizer. The tissue suspension is centrifuged at 27,000×g for 10 min. The supernatant is discarded and the pellet is washed three times by centrifugation at 27,000×g for 10 min in 20 ml fresh buffer, and the final pellet is resuspended in fresh buffer (400 ml per g of original tissue) and used for binding assays.
Assay: Aliquots of 2.0 ml homogenate are added to 0.100 ml of test solution and 0.100 ml of ^3H-epibatidin (0.3 nM, final concentration), mixed and incubated for 60 min at room temperature. Non-specific binding is determined using (−)-nicotine (30 μM, final concentration). After incubation the samples are poured directly onto Whatman GF/C glass fibre filters (presoaked in 0.1% PEI for at least 20 min) under suction and immediately washed with 2×5 ml ice-cold buffer. The amount of radioactivity on the filters is determined by conventional liquid scintillation counting. Specific binding is total binding minus non-specific binding.

SMILES	IC50
COc1cncc(N2CCCN(C)CCC2)c1 [Compound 11A]	1.2 µM
